{"source": "patent US20070207975A1", "about": "“Materials and methods for treating and preventing Her-2/neu overexpressing, FAS-elevated cancer cells” (EVANSTON NORTHWESTERN HEALTHCARE, priority 2006, published 2007)", "type_in_all_cases": "cell-based, human", "key": {"[1]": {"tested_on": "p185^Her-2/neu", "assay": "Flow cytometric analysis of cell surface-associated p185Her-2/neu", "details": "for reduction of cell surface-associated p185^Her-2/neu expression: 10 mM OA, 48 hours, 0.1% FBS; for down-regulation of p185^Her-2/neu expression: OA 5 mM, trastuzumab 5 mg/ml", "description": "FIG. 1. […] FIG. 2. […] The amount of cell surface-associated p185^Her-2/neu was quantified by flow cytometric analyses using a specific antibody against the extracellular domain of p185^Her-2/neu (Ab-5), as described herein. The mean fluorescence signal±SD (n=3) was quantified using the geo mean fluorescence (GM) parameter provided with the Cell Quest Software (Becton Dickinson). […] After labeling, cells were washed thoroughly, and localization of p185^Her-2/neu was detected by indirect immunofluorescence by incubating with FITC-conjugated anti-mouse IgG. After counterstaining with DAPI, cells were examined and photographed using a Zeiss fluorescent microscope equipped with a built-in camera. […] Before experiments, cells were serum-starved overnight and then cultured in IMEM containing 0.1% FBS in the absence or presence of GLA (Sigma Chemical Co., St. Louis, Mo.). GLA was prepared at a concentration of 1 mg/mL in ethanol and was added to a final concentration of 0, 5, 10, or 20 μg/mL; an equal volume of ethanol was added to control cells. […] A) Cell surface expression of Her-2/neu protein in BT-474 and SK-Br3 cells was determined by flow cytometry using a mouse anti-Her-2/neu antibody directed against the extracellular domain of the p185^Her-2/neu oncoprotein (clone Ab-5; Oncogene Research Products; San Diego, Calif.). Briefly, after GLA or control treatment, cells were washed, harvested, resuspended in phosphate-buffered saline (PBS) containing 1% FBS, and incubated with 5 μg/mL Ab-5 antibody for 1 hour at 4° C. The cells were washed again and then incubated with a fluorescein isothiocyanate (FITC)-conjugated anti-mouse IgG secondary antibody (Jackson ImnunoResearch Laboratories, West Grove, Pa.) diluted 1:200 in cold PBS containing 1% FBS for 45 minutes at 4° C. The cells were washed once more in cold PBS, and flow cytometric analysis was performed with a FACScalibur flow cytometer (Becton Dickinson, San Diego, Calif.) equipped with Cell Quest Software (Becton Dickinson). […] As a control for nonspecific immunofluorescence, cells were stained with the secondary antibody alone (solid black line). The mean fluorescence signal associated with cells for labeled p185^Her-2/neu was quantified using the Geo Mean (GM) fluorescence parameter provided with the software. […] B) Immunoblot analysis of Her-2/neu and PEA3 proteins in control- and GLA-treated BT-474 and SK-Br3 cells. […] Immunoreactive bands were detected by enhanced chemiluminescence reagent (Pierce, Rockford, Ill.). Blots were reprobed with an anti-β-actin goat polyclonal antibody (Santa Cruz Biotechnology) to control for protein loading and transfer. Densitometric values of protein bands were quantified using Scion Imaging Software (Scion Corp., Frederick, Md.)."}, "[2]": {"tested_on": "PEA3", "assay": "Immunoblot analysis of PEA3 protein", "experimental": "[…] Louis, Mo.). […] […] A) Cell surface expression of Her-2/neu protein in BT-474 and SK-Br3 cells was determined by flow cytometry using a mouse anti-Her-2/neu antibody directed against the extracellular domain of the p185^Her-2/neu oncoprotein (clone Ab-5; Oncogene Research Products; San Diego, Calif.). Briefly, after GLA or control treatment, cells were washed, harvested, resuspended in phosphate-buffered saline (PBS) containing 1% FBS, and incubated with 5 μg/mL Ab-5 antibody for 1 hour at 4° C. The cells were washed again and then incubated with a fluorescein isothiocyanate (FITC)-conjugated anti-mouse IgG secondary antibody (Jackson ImnunoResearch Laboratories, West Grove, Pa.) diluted 1:200 in cold PBS containing 1% FBS for 45 minutes at 4° C. The cells were washed once more in cold PBS, and flow cytometric analysis was performed with a FACScalibur flow cytometer (Becton Dickinson, San Diego, Calif.) equipped with Cell Quest Software (Becton Dickinson). […] As a control for nonspecific immunofluorescence, cells were stained with the secondary antibody alone (solid black line). The mean fluorescence signal associated with cells for labeled p185^Her-2/neu was quantified using the Geo Mean (GM) fluorescence parameter provided with the software. […] B) Immunoblot analysis of Her-2/neu and PEA3 proteins in control- and GLA-treated BT-474 and SK-Br3 cells. Cells were washed twice with PBS and then lysed in buffer (20 m M Tris [pH 7.5], 150 m M NaCl, 1 mM EDTA, 1 m M EGTA, 1% Triton X-100, 2.5 m M sodium pyrophosphate, 1 mM β-glycerolphosphate, 1 mM Na3VO4, 1 μg/ml leupeptin, 1 mM phenylmethylsulfonyl fluoride) for 30 minutes on ice. Equal amounts of protein (10 μg) were heated in sodium dodecyl sulfate (SDS) sample buffer for 10 minutes at 70° C., subjected to electrophoresis on either 3-8% NuPAGE Tris-acetate (p185^Her-2/neu) or 10% SDS-polyacrylamide gel electrophoresis (PEA3) gels, and transferred to nitrocellulose membranes. Nonspecific binding was blocked by incubation for 1 hour with TBS-T (25 mM Tris-HCl [pH 7.5], 150 mM NaCl, and 0.05% Tween-20) containing 5% nonfat dry milk. The treated filters were washed in TBS-T and then incubated with primary antibodies, anti-p185^Her-2/neu mouse monoclonal antibody—Clone Ab-3 [Oncogene Research Products, San Diego, Calif.] and anti-PEA3 mouse monoclonal antibody—sc-113 [Santa Cruz Biotechnology, Santa Cruz, Calif.], for 2 hours in TBS-T containing 5% (w/v) nonfat dry milk. The membranes were washed in TBS-T and horseradish peroxidase—conjugated secondary antibodies in TBS-T were added for 45 minutes. Immunoreactive bands were detected by enhanced chemiluminescence reagent (Pierce, Rockford, Ill.). Blots were reprobed with an anti-β-actin goat polyclonal antibody (Santa Cruz Biotechnology) to control for protein loading and transfer. Densitometric values of protein bands were quantified using Scion Imaging Software (Scion Corp., Frederick, Md.)."}, "[3]": {"tested_on": "Her-2/neu protein", "assay": "Immunoblot analysis of Her-2/neu protein"}, "[4]": {"details": "BT-474 and SK-Br3, GLA 10 μg/mL for 48 hours"}, "[5]": {"details": "MDA-MB-453, SK-OV3 and NCI-N87, GLA 10 μg/mL for 48 hours"}, "[6]": {"details": "MCF-7/neo cells, OA supplementation"}, "[7]": {"details": "SK-Br3, SK-OV3 and NCI-N87, OA 20 μM, 48 hours"}}, "data": [{"smiles": "CCCCCC=CCC=CCC=CCCCCC(=O)O", "note": "[GLA, 6,9,12-octadecatrienoic acid]", "values": [{"measurement": "levels of cell surface-associated Her-2/neu protein versus vehicle-treated cells", "setting": "[1]; BT-474 and SK-Br3 cells, GLA 10 μg/mL for 48 hours", "value": "substantially lower"}, {"measurement": "levels of PEA3 protein", "setting": "[2]; [4]", "value": "increase"}, {"measurement": "levels of PEA3 protein", "setting": "[2]; MDA-MB-231, GLA exposure", "value": "not changed substantially"}, {"measurement": "PEA3 protein expression", "setting": "[2]; [5]", "value": "increased"}, {"measurement": "Her-2/neu protein levels", "setting": "[3]; [4]", "value": "substantial reduction"}, {"measurement": "Her-2/neu protein levels", "setting": "[3]; MDA-MB-231 (low Her-2/neu), GLA exposure", "value": "did not affect"}, {"measurement": "Her-2/neu protein levels", "setting": "[3]; [5]", "value": "markedly decreased"}]}, {"smiles": "CCCCCCCCC=CCCCCCCCC(=O)O", "note": "[OA, 9-octadecenoic acid]", "values": [{"measurement": "reduction of cell surface-associated p185^Her-2/neu expression", "setting": "[1]; BT-474 cells", "value": "up to 46%"}, {"measurement": "down-regulation of p185^Her-2/neu expression", "setting": "[1]; BT-474 cells, alone or concurrently combined", "value": 36, "unit": "%"}, {"measurement": "reduction of cell surface-associated p185^Her-2/neu expression", "setting": "[1]; SK-Br3 cells", "value": "up to 36%"}, {"measurement": "down-regulation of p185^Her-2/neu expression", "setting": "[1]; SK-Br3 cells, alone or combined", "value": 24, "unit": "%"}, {"measurement": "PEA3 protein levels", "setting": "[2]; [6]", "value": "not significantly affected"}, {"measurement": "PEA3 protein expression", "setting": "[2]; [7]", "value": "significant up-regulation"}, {"measurement": "Her-2/neu protein levels", "setting": "[3]; MCF-7/Her2-18 transfectants (SV40 promoter), OA treatment", "value": "failed to decrease"}, {"measurement": "Her-2/neu protein levels", "setting": "[3]; [6]", "value": "not significantly affected"}, {"measurement": "Her-2/neu protein expression", "setting": "[3]; [7]", "value": "down-regulation"}]}]}
